How the values were obtained:
CCRF-CEM cells = experiment: Apoptosis by Annexin V-FITC PI double staining (flow cytometry), CCRF-CEM; format: cell-based, human; conditions: compared to dexamethasone alone; FIG. 2A: Akt inhibitor 1 μM, dexamethasone 1 μM, LY294002 30 μM; FIG. 2G, 2J, 2K
Procedure: (§1) The control group was not added with any reagents. All experiments were performed in triplicate.
(§2) Apoptosis was detected by Annexin V-FITC PI double staining method (flow cytometry kit (FITC, PI double staining), Sangon Biotech (Shanghai) Co., Ltd.)), and the collected cells were washed once with phosphate buffered saline (PBS) (135 mM NaCl, 2.7 mM KCl, 1.5 mM KH2PO4 and 8 mM K2HPO4, pH 7.2); the 4× binding buffer was diluted to a 1× binding buffer with deionized water, then the cells were resuspended with 195 ul of the 1× binding buffer at a cell density of 2-5×10^5/ml; 5 μl of Annexin V-FITC was added to the 195 μl of the cell resuspension and mixed, and incubated in dark at room temperature for 10 minutes; the cells were washed once with 200 μl of the 1× binding buffer, and then resuspended in 190 μl of the 1× binding buffer; 10 μl of propidium iodide (20 μg/ml) was added. A flow cytometry device (Beckman company) was used for detection, and the rate of apoptosis was analyzed using Summit software.
(§3) The cells were cultured in RPMI 1640 complete medium (Gibco company) containing 10% fetal bovine serum (FBS, Gibco company) in an incubator (Thermo company) at 5% CO2 and 37° C. until reaching logarithmic growth phase, then different concentrations of inhibitors and/or dexamethasone/ethanol/DMSO were added to the culture medium, followed by further culturing (for addition of dexamethasone/ethanol/DMSO, for 48 hours, and for addition of inhibitor, for 24 hours), and apoptosis was detected by Annexin V-FITC PI double staining and proteins were detected by Western blot, as described in Example 1.
(§4) As described in Example 3, the cells were cultured in RPMI 1640 complete medium containing 10% fetal bovine serum under 5% CO2 and 37° C. until reaching logarithmic growth phase, and then dexamethasone and different concentrations of Akt inhibitor were added to the culture medium, followed by further culture (for addition of dexamethasone/DMSO, for 48 hours, and for addition of the inhibitor, for 24 hours), the apoptosis was detected by Annexin V-FITC PI double staining method and proteins were detected by Western blot as described in Example 1 as well as the cell viability was detected by CCK-8 method.

[1] = system: Akt/FoxO3a/Bim signaling pathway in CCRF-CEM cells; experiment: Western blot of Akt/FoxO3a/Bim signaling pathway proteins in CCRF-CEM cells; format: cell-based, human; conditions: for expression of phosphorylated FoxO3a, inhibitor plus dexamethasone: 2I; for expression of p-Akt1 / expression of p-Akt2: CCRF-CEM, inhibitors 0.8 μM, FIG. 5A
Procedure: as §1
Protein detection by Western blot: in the examples of the present invention, Akt antibody (rabbit derived), phosphorylated Akt antibody (rabbit derived), FoxO3a antibody (rabbit derived), phosphorylated FoxO3a antibody (rabbit derived) and GAPDH antibody (rabbit derived) and secondary antibodies were all purchased from CST company. The cells were collected in a centrifuge tube and centrifuged at 1000 rpm, the supernatant was discarded and the cells were washed twice with PBS pre-cold at 4° C.; cell lysis buffer (150 mM NaCl, 1% NP-40, 0.1% SDS, 2 μg/ml Aprotinin, 2 μg/ml Leupeptin, 1 mM PMSF, 1.5 mM EDTA, 1 mM sodium vanadate) was added and the cells were lysed on ice for 40 minutes, the cell lysate was centrifuged at 20000 rpm, 4° C. for 15 minutes, and the supernatant was collected; a protein loading buffer for sodium dodecyl sulfate polyacrylamide (SDS-PAGE) gel electrophoresis (1.25 mL 1MTris-HCl (pH6.8), 0.5 g SDS, 25 mg BPB, 2.5 mL glycerol, 5 mL deionized water) was added, followed by boiling for 5 minutes to denature proteins; the loading buffer containing denatured proteins was applied to 10% SDS-PAGE for electrophoresis at 120 V, and then transferred to a PVDF membrane (Sangon Biotech (Shanghai) Co., Ltd.) at 130 V for 1.5 hours; after the membrane transfer was completed, the PVDF membrane was immediately rinsed with a Western washing solution (150 mmol/L NaCl, 50 mmol/L Tris-HCl (pH 7.5)) for 1-2 minutes; added with 5% non-fat milk powder (Shanghai Biotechnology Co., Ltd.), agitated gently and then blocked at room temperature for 60 minutes; a primary antibody diluted appropriately with 5% non-fat milk powder was added, and incubated overnight at room temperature with gentle agitating; the primary antibody was recovered and the membrane was washed three times with the washing solution for 5-10 minutes each; a horseradish peroxidase-labeled secondary antibody diluted appropriately with the Western washing solution was added, and incubated at room temperature for 1 hour with gentle agitating; the secondary antibody was recovered and the membrane was washed three times with the Western washing solution for 5-10 minutes each. An appropriate amount of developing solution (DAB 4 mg, 30% hydrogen peroxide 15 μL, 0.01 M Tris-Cl (pH 7.5) 5 mL) was dropped on the PVDF membrane, the image was detected using a bioluminescence image colorimeter and a gel imaging system (Thermo company), and the quantitative analysis of bands was performed using Image Lab software.
as §3
Methods: CCRF-CEM cells were cultured in RPMI 1640 complete medium (Gibco company) containing 10% fetal bovine serum (FBS, Gibco company) in an incubator (Thermo company) at 5% CO2 and 37° C. until reaching logarithmic growth phase, then DMSO, dexamethasone and different inhibitors (DMSO: 0.1%, dexamethasone: 0.1 μM, inhibitors: 0.8 μM) were added to the culture medium, and further cultured (for addition of dexamethasone or DMSO, for 48 hours, and for addition of inhibitors, for 24 hours), and the proteins were detected by Western blot, as described in Example 1.

Jurkat cells = experiment: Apoptosis by Annexin V-FITC PI double staining, Jurkat; format: cell-based, human; conditions: for apoptosis of Jurkat cells, inhibitor in combination with dexamethasone: compared to the only/single dexamethasone group, FIG. 2F, 4J; for apoptosis of siRNA-transfected Jurkat cells induced by dexamethasone: compared to the dexamethasone group, FIG. 5H
Procedure: as §2, §3, §4
The transfected cells were selected and passaged for 3 to 5 passages after resuscitation, with Interferin™ as transfection reagent, and the transfection procedure was performed in accordance with the instruction of the transfection reagent. In short, the cells of logarithmic growth phase were plated at 2×10^5/well, the cells were replaced with fresh complete medium (free of antibiotics) during transfection, siRNA was diluted with Opti-MEM and added with an appropriate amount of […]in™ and mixed, incubated at room temperature for 10 minutes prior to being added dropwise to the cells, and the cells were harvested at appropriate time. The cells were transfected with green fluorescein-labeled siRNA (FAM-siRNA) (siRNA at a final concentration of 20 μM, 1.25 μl/well), and the transfection efficiency was observed using a fluorescence microscope 24 hours later. The dexamethasone group was added 24 hours after transfection, followed by culture for further 24 hours, and then the cells were collected for observation; and the equal amount of anhydrous ethanol was added to the control group.

Daudi cells [2] = experiment: Apoptosis by Annexin V-FITC PI double staining, Daudi; format: cell-based, human; conditions: compared to the dexamethasone group; FIG. 2K, 4L
Procedure: as §2
as §3, with “1. […]” for “1.”

Daudi cells [3] = experiment: Cell viability by CCK-8 and combination index, Daudi; format: cell-based, human; conditions: B lymphoma cells; as shown in Table 1
Procedure: as §4
The inhibitory effect of two drugs (dexamethasone and an inhibitor) alone and in combination on various lymphocyte lines was observed by CCK-8 method (CCK-8 kit), and then the half-inhibitory concentration of each drug was calculated using the median effect equation, and the combination index (CI) of the two drugs used in combination was calculated using CompuSyn software.
(1) the lymphocytes of logarithmic growth phase were taken and made to a cell suspension of 5×10^4/mL, a blank control group (5 wells), a dexamethasone group (3 wells for each concentration, triplicates), a single inhibitor group (3 wells for each concentration, triplicates), a dexamethasone plus inhibitor group (3 wells for each combined concentration, triplicates) were prepared, 180 μL of the suspension was seeded to each well of a 96-well plate, and incubated for 24 hours in an incubator at 5% CO2 and 37° C.
Based on the drug resistance of cells, the ratio of two drugs was fixed. The dexamethasone group was cultured for 48 hours while the inhibitor group was cultured for 24 hours.
(3) 10 μl of CCK-8 was added to each well, and cultured for 2 hours, and the optical density (OD) was measured at 450 nm using an automatic microplate reader, and the proliferation inhibition rate of the drug on cell was calculated.
(4) the proliferation inhibition rate was calculated according to the following equation: cell proliferation inhibition rate=(1-average OD value in the test group/average OD value in the control group)×100%, and the effect of interaction between the two drugs was analyzed by Chou-Talalay combination index method.

[4] = system: Akt/FoxO3a/Bim proteins in L-02 cells; experiment: Western blot of Akt/FoxO3a/Bim proteins in L-02 cells; format: cell-based, human; conditions: pretreated with inhibitor 0.8 μM; FIG. 6B
Procedure: Protein detection by Western blot: in the examples of the present invention, Akt antibody (rabbit derived), phosphorylated Akt antibody (rabbit derived), FoxO3a antibody (rabbit derived), phosphorylated FoxO3a antibody (rabbit derived) and GAPDH antibody (rabbit derived) and secondary antibodies were all purchased from CST company. […] An appropriate amount of developing solution (DAB 4 mg, 30% hydrogen peroxide 15 μL, 0.01 M Tris-Cl (pH 7.5) 5 mL) was dropped on the PVDF membrane, the image was detected using a bioluminescence image colorimeter and a gel imaging system (Thermo company), and the quantitative analysis of bands was performed using Image Lab software.

[5] = system: L-02 human-derived healthy liver cell line; experiment: CCK-8 viability of healthy liver cells L-02; conditions: FIG. 6A; for damage to liver cells: DEX 0.1 μM, inhibitors 0.8 μM
[6] = Toxicity in tumor-bearing nude mice (peripheral blood test, organ pathology)
[7] = compared to the only dexamethasone group, FIG. 2B, 2H

Row | Molecule | apoptosis of CCRF-CEM cells induced by dexamethasone, inhibitor plus dexamethasone (CCRF-CEM cells) | expression of phosphorylated FoxO3a, inhibitor plus dexamethasone [1, 7] | apoptosis of Jurkat cells, inhibitor in combination with dexamethasone (Jurkat cells) | apoptosis of Daudi cells, inhibitor in combination with dexamethasone (Daudi cells [2]) | expression of p-Akt1 [1] | expression of p-Akt2 [1] | effect of inhibitor in combination with dexamethasone in B lymphoma cells (in words) (Daudi cells [3]) | expressions of p-Akt1 and p-Akt2 in L-02 cells [4] | damage to liver cells [5] | recovery of liver cell activity [5] | apoptosis of siRNA-transfected Jurkat cells induced by dexamethasone (Jurkat cells) | also measured
1 | OCC1OC(O)CC(O)C1O (stereo not shown) [2-DG] | significantly increased | decreased | – | – | – | – | – | – | – | – | – | total FoxO3a expression, inhibitor plus dexamethasone ([1]; compared to dexamethasone alone, FIG. 2H): increased; expression of pro-apoptosis factor Bim, inhibitor plus dexamethasone [1, 7]: significantly up-regulated
2 | Cc1[nH]nc2ccc(-c3cncc(OC[C@@H](N)Cc4ccccc4)c3)cc12 [A-674563] | – | – | significantly increase | significantly increase | effectively inhibited | compensatory increase | low degree of synergistic effect | correspondingly increased | most serious damage | did not recover within 48-hour | – | liver pathology (HE staining) ([6]; 7-day administration, FIG. 8A, 8B): did not cause morphological changes of the liver tissues; level of TBIL ([6]; compared to the NC group, FIG. 6I): significantly increased; level of peripheral blood AST ([6]; compared to the normal saline group (NC), FIG. 3F, 6H): significantly increased
3 | NC1(Cc2ccc(Cl)cc2)CCN(c2ncnc3[nH]ccc23)CC1 [CCT128930] | – | – | significantly increase | significantly increase | increased | increased | additive effect | correspondingly increased | least damage | gradually recovered after 6 hours of administration | – | liver cell activity ([5]; after six hours of administration): 56.1%
4 | C[C@H](NC(=O)Cc1cc(F)cc(F)c1)C(=O)N[C@H](C(=O)OC(C)(C)C)c1ccccc1 [dapt] | significantly increased | significantly reduced | – | – | – | – | – | – | – | – | – | –
5 | Akt1 siRNA: siRNA, SEQ ID NO: 5 GGCCCAACACCUUCAUCAUTT and SEQ ID NO: 6 AUGAUGAAGGUGUUGGGCCTT (chain 1 GGCCCAACACCUUCAUCAUNN; chain 2 AUGAUGAAGGUGUUGGGCCNN; listed as RNA, chemistry not given here) | – | – | – | – | – | – | – | – | – | – | not increased | –
6 | Akt2 siRNA: siRNA, SEQ ID NO: 7 GGUUCUUCCUCAGCAUCAATT and SEQ ID NO: 8 UUGAUGCUGAGGAAGAACCTT (chain 1 GGUUCUUCCUCAGCAUCAANN; chain 2 UUGAUGCUGAGGAAGAACCNN; listed as RNA, chemistry not given here) | – | – | – | – | – | – | – | – | – | – | significantly increased | –

From patent US10849906B2, “Use of Akt2 in diagnosis and treatment of tumor” (priority 2015, dated 2020)
